One series deals with Salmonella strain TA1537. The conditions noted are these: cited from earlier work.
Another series relates to neuropeptide Y (Npy). Briefly: Whole genome microarray gene expression analysis of aortic genes: Npy. In kind it is in vivo. The conditions noted are these: ApoE-/- mice, 10 mg/kg/day for 8 months. The procedure:
(§1) Whole genome microarray gene expression profiling was performed with aortic specimens isolated from 9-month-old ApoE−/− mice without treatment and with oral treatment for 8 months with alizarin (10 mg/kg/day), and untreated age-matched B6 control mice. Total RNA was isolated by the RNeasy Mini kit according to the protocol of the manufacturer (Qiagen). RNA purity was between 1.8 and 2 as determined by the absorbance ratio of 260/280. RNA quality and absence of signs of degradation were also controlled by RNA electrophoresis on a denaturing agarose gel by the presence of bright bands of 28S and 18S ribosomal RNA. Total RNA was processed for whole genome microarray gene expression profiling with the GeneChip One-Cycle Target Labeling System (Affymetrix) according to the protocol of the manufacturer (Affymetrix GeneChip Expression Analysis Technical Manual Rev. 5). […]
(§2) Alzheimer's Disease (AD) is the most frequent form of dementia in the elderly. […] Atherosclerotic lesion area was assessed with oil red O-stained aortas isolated from 9-month-old ApoE−/− mice (FIG. 17A). […] The aortic expression levels of neuronal marker genes of alizarin-treated ApoE−/− mice were determined compared to untreated ApoE−/− mice and untreated B6 mice without atherosclerosis (FIG. 17D,E).

The subject of series [1] is synaptosomal nerve-associated protein 25 (Snap25). Briefly: Whole genome microarray gene expression analysis of aortic genes: Snap25. Format: in vivo. The conditions noted are these: ApoE-/- mice, 10 mg/kg/day for 8 months. On the procedure: as §1, §2
In another series the test system is Abeta plaques. The series can be described thus: Abeta plaque load in Tg2576 mice, immunohistology with BAM-10 antibody. Format: in vivo. The conditions noted are these: 18-month-old Tg2576 mice treated for 6 months.
Another series has as its system HPV-induced warts. Briefly: Phase-1 placebo-controlled study of topical Compound-1 on flat warts. The conditions noted are these: once daily topical Compound-1-containing hydrogel (0.2%) for 3 weeks. Format: in vivo, human. The procedure:
The study analyzed the treatment effect of topical administration of Compound-1 on warts. The study was performed according to the study protocol. Study design: The study was a phase-1, placebo-controlled study of Compound-1. The primary end-point was safety and tolerability. Secondary objectives were treatment effects on wart lesion size. The study included a cohort of 6 voluntary research participants (6 males; age 36-72 years; all Caucasians) with diagnosed flat warts. A total number of 94 lesions were treated with Compound-1. Vehicle-treated warts (n=88) of each participant served as placebo group. Study participants received once daily topical applications of a Compound-1-containing hydrogel (0.2%) or vehicle for 3 weeks. The study participants were under the medical supervision of Dr. Raafat Mahmood Fawzy (Clinical Director, Rabaa El Adaweya Medical Central Hospital, Cairo, Egypt). Clinical laboratory parameters of all research participants were within the normal range before, during the study and after completion of the study (observation period 4 weeks). […] The study protocol was conducted in accordance with the Declaration of Helsinki. All research participants provided written informed consent before participation. Research participants had the possibility to withdraw at any time from the study. But all participants wanted to complete the study.
A total number of 94 lesions were treated with Compound-1. Vehicle-treated warts (n=88) served as placebo. […] The treatment effect of Compound-1 against HPV infection is directly related to its activity as TOMM6 inducer/activator, which is a sufficient cause to inhibit (amyloidogenic) protein aggregation in cells and in vivo. In this context, HPV infection is another disease with causal involvement of an aggregation-prone amyloidogenic protein. Without wishing to be bound by theory, it is believed that Infections with human papillomaviruses (HPV) rely on the highly amyloidogenic protein E1AE4, also known as the HPV E4 protein (McIntosh et al., 82, 8196-8203 (2008)). The HPV E4 protein, which uses the amyloid-fold as does amyloid-beta, is the most abundantly expressed viral transcript/protein in HPV-infected epithelia, and mediates HPV-mediated disruption of cellular integrity, HPV release from infected epithelial cells and virus transmission (McIntosh et al., 82, 8196-8203 (2008); Doorbar, Virology 445, 80-98 (2013)). In HPV-induced warts, the aggregation-prone HPV E4 protein can constitute between 20% and 30% of the total wart protein (Doorbar et al., EMBO J. 5, 355-362 (1986)). The expression of E1AE4 relies on self-aggregation of the HPV E4 protein (Bryan et al., Virology 241, 49-60 (1998)).

Series [2] is described as follows: Tolerability / toxicity in dogs during four weeks of oral treatment. The conditions noted are these: once daily oral dose up to 6 mg/kg/d. In kind it is in vivo.
Experimental: Sub-chronic toxicity studies in dogs (German Shepherd dogs) and rats (Sprague Dawley rats) were performed by the Center of Applied Analytical and Veterinary Studies, Cairo, Egypt.

The structures appear in SMILES notation.

The text below walks through data of patent US20210186947A1, “TOMM6-INTERACTING EXTRACTS AND COMPOUNDS FOR USE IN THE TREATMENT AND PROPHYLAXIS OF NERVOUS SYSTEM DISEASES, ATHEROSCLEROSIS, HEPATITIS B INFECTION AND HUMAN PAPILLOMA VIRUS (HPV) INFECTION” (ETH ZURICH, priority 2018, published 2021).

For `O=C1c2ccccc2C(=O)c2c1ccc(O)c2O` [Compound-1, 1,2-dihydroxyanthraquinone], the “mutagenicity in the Ames test” value in the series on Salmonella strain TA1537 was “could be mutagenic”. Further, the “aortic expression level of Npy” value in the series with neuropeptide Y (Npy) is “not down-regulated and maintained at the levels of the non-transgenic B6 controls”. Further, in series [1], the “aortic expression level of Snap25” value was “not down-regulated and maintained at the levels of the non-transgenic B6 controls”. The “Abeta plaque load in hippocampal and brain cortical areas” value in the series with Abeta plaques is recorded as “significantly inhibited the accumulation of Abeta plaques”. The “response of treated warts” value in the series on HPV-induced warts is “showed a response”. Further, in the series with HPV-induced warts (6 participants), the “adverse effects (safety and tolerability)” value is listed as “no adverse effects”. In addition, in the series on HPV-induced warts (94 lesions), the “lesions with complete response (100% decrease of the lesion area)” value is on record as “more than 86%” and the “lesions with partial response (>50%-<100% decrease of lesion area)” value is 13.8%. Also, the “adverse effects (behaviour, food intake, weight gain, cardiovascular parameters, blood cells, clinical chemistry)” value in series [2] is “did not induce any detectable adverse effects”.
